The results in this text go back to US20240381872A1, “SUBSTITUTED 2,3-DIHYDRO[1,3]THIAZOLO[4,5-B]PYRIDINES, SALTS THEREOF AND THEIR USE AS HERBICIDALLY ACTIVE SUBSTANCES” (BAYER AKTIENGESELLSCHAFT, priority 2021, published 2024).

SMILES strings stand for the structures.

Common to all, as to format: in vivo
Experiment [1] has as its system Setaria viridis (SETVI). Nature of the experiment: Herbicidal pre-emergence action, section A (Table A8). Summed up: (§1)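 Visual scoring at approximately 3 weeks, relative to untreated pots, gave percent effect after compounds in WP or EC form were sprayed onto covering soil of sown seeds (sandy loam) in water with 0.5% additive at 600 l/ha, then kept in greenhouse.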

In experiment [2] the test system is Setaria viridis (SETVI). The experiment is described as follows: Herbicidal post-emergence action, section B (Table B8). As to conditions: visual rating about 3 weeks after treatment vs untreated controls. The essentials:
(§2)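 Post-emergence greenhouse test. One-leaf stage; WP or EC plus 0.5% additive; 600 liters per hectare water volume; visual % rating at ~3 weeks relative to untreated plants.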

Experiment [3] concerns Polygonum convolvulus (POLCO). Nature of the experiment: Herbicidal post-emergence action, section E (Table E7). The note with it: visual assessment ca. 3 weeks after spraying. Summed up: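 Post-emergence greenhouse spray onto single-leaf-stage plants raised in sandy loam, using WP or EC formulations with 0.5% additive at 600 l water/ha. Effect is the visual percentage damage relative to untreated controls after about 3 weeks.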

Experiment [4] relates to Digitaria sanguinalis (DIGSA). The experiment is described as follows: Herbicidal pre-emergence action, section C (Table C12). The note with it: visual grading after ca. 3 weeks; for pest or weed control at 80 g/ha: Digitaria sanguinalis, pre-emergence, 504 h, read-out: pre-emergence activity against DIGSA in %. The essentials:
(§3)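 Pre-emergence, sandy loam. WP/EC formulations applied to covering soil surface, aqueous, + 0.5% additive, 600 l water/ha. Greenhouse, optimum growth. Visual % damage vs untreated, ca. 3 wk.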

Experiment [5] deals with Echinochloa crus-galli (ECHCG). The experiment is described as follows: Herbicidal pre-emergence action, section C (Table C3). As to conditions: visual grading after ca. 3 weeks vs untreated controls; for pest or weed control at 80 g/ha: Echinochloa crus-galli, pre-emergence, 504 h, read-out: pre-emergence activity against ECHCG in %. Summed up:
as §3

The next experiment deals with Stellaria media (STEME). Nature of the experiment: Herbicidal post-emergence action, section B (Table B9). The note with it: visual rating about 3 weeks after treatment vs untreated controls; for pest or weed control at 320 g/ha: Stellaria media, post-emergence, 504 h, read-out: post-emergence activity against STEME in %. Summed up:
as §2

Another experiment concerns Poa annua (POAAN). Nature of the experiment: Herbicidal pre-emergence action, section A (Table A7). The note with it: visual grading after ca. 3 weeks vs untreated controls. The essentials:
as §1

In experiment [6] the test system is Alopecurus myosuroides (ALOMY). Nature of the experiment: Herbicidal pre-emergence action, section A (Table A2). The note with it: visual grading after ca. 3 weeks vs untreated controls; for pest or weed control at 1280 g/ha: Alopecurus myosuroides, pre-emergence, 504 h, read-out: pre-emergence activity against ALOMY in %. The essentials: as §1
Experiment [7] deals with Amaranthus retroflexus (AMARE). Nature of the experiment: Herbicidal post-emergence action, section E (Table E3). The note with it: application rate 320 g/ha, assessed visually after ca. 3 weeks; for pest or weed control at 320 g/ha: Amaranthus retroflexus, post-emergence, 504 h, read-out: post-emergence activity against AMARE in %. The text has this: Seeds of mono- and dicotyledonous weed plants and crop plants were sown, in plastic or organic planting pots, in sandy loam, covered with soil and grown in a greenhouse under controlled growth conditions. 2 to 3 weeks after sowing, the test plants were sprayed in the single-leaf stage. The compounds according to the invention, formulated in form of wettable powders (WP) or as emulsifiable concentrates (EC), were sprayed onto the green plant parts as aqueous suspension or emulsion, with the addition of 0.5% of an additive, at an application rate of 600 l of water/ha (converted). The test plants were placed in the greenhouse for ca. 3 weeks under optimum growth conditions, and then the effect of the preparations was assessed visually in comparison with untreated controls (herbicidal effect in percent (%): 100% effect=plants have died off, 0% effect=as control plants).

Experiment [8] deals with Abutilon theophrasti (ABUTH). The experiment is described as follows: Herbicidal pre-emergence action, section A (Table A1). As to conditions: visual grading after ca. 3 weeks vs untreated controls. The essentials: as §1
Experiment [9] deals with Matricaria inodora (MATIN). The experiment is described as follows: Herbicidal pre-emergence action, section A (Table A6). The note with it: visual grading after ca. 3 weeks vs untreated controls; for pest or weed control at 320 g/ha: Tripleurospermum inodorum, pre-emergence, 504 h, read-out: pre-emergence activity against MATIN in %. The essentials:
as §1

Experiment [10] concerns Digitaria sanguinalis (DIGSA). The experiment is described as follows: Herbicidal pre-emergence action, section A (Table A12). The note with it: application rate 320 g/ha; for pest or weed control at 320 g/ha: Digitaria sanguinalis, 504 h, read-out: pre-emergence activity against DIGSA in %. The essentials:
as §1

With `Cc1cc2c(nc1-c1cccc(F)c1F)NCS2` [Example I-029, 5-(2,3-difluorophenyl)-6-methyl-2,3-dihydro[1,3]thiazolo[4,5-b]pyridine], the pest or weed control at 320 g/ha with Setaria viridis (SETVI) [1] (Setaria viridis, 504 h, application rate 320 g/ha, read-out: pre-emergence activity against SETVI in %) was found to be 100%; in experiment [3] (Fallopia convolvulus, 504 h, application rate 320 g/ha, read-out: post-emergence activity against POLCO in %), 90%; in the experiment on Stellaria media (STEME) (application rate 320 g/ha) it was 90%; in [7], 80%; in experiment [9] (application rate 320 g/ha), 90%; in experiment [10], 100%. Also, the pest or weed control at 1280 g/ha with Setaria viridis (SETVI) [2] (Setaria viridis, post-emergence, 504 h, application rate 1280 g/ha, read-out: post-emergence activity against SETVI in %) stood at 90%; with Poa annua (POAAN) (Poa annua, pre-emergence, 504 h, application rate 1280 g/ha, read-out: pre-emergence activity against POAAN in %), 100%; in [6] (application rate 1280 g/ha) it was 90%; in [8] (Abutilon theophrasti, pre-emergence, 504 h, application rate 1280 g/ha, read-out: pre-emergence activity against ABUTH in %), 90%. The pest or weed control at 80 g/ha was 90% in [4] (application rate 80 g/ha) and 100% in [5] (application rate 80 g/ha).

Regarding `COC(=O)CCC(=O)N1CSc2cc(C)c(-c3ccccc3F)nc21` [Example I-010], the “pre-emergence activity against SETVI in %” value with Setaria viridis (SETVI) [1] (application rate 1280 g/ha) was 100%. Moreover, the “post-emergence activity against SETVI in %” value in the experiment on Setaria viridis (SETVI) [2] (application rate 1280 g/ha) is 90%. The “post-emergence activity against POLCO in %” value in [3] (application rate 320 g/ha) amounted to 90%. Besides, the “pre-emergence activity against DIGSA in %” value in experiment [4] (application rate 80 g/ha) and in experiment [10] was 100% in each case. In [5] (application rate 80 g/ha), the “pre-emergence activity against ECHCG in %” value is 100%. For the same compound, the “post-emergence activity against STEME in %” value in the experiment with Stellaria media (STEME) (application rate 320 g/ha) amounted to 90%. Besides, the “pre-emergence activity against POAAN in %” value in the experiment with Poa annua (POAAN) (application rate 320 g/ha) was 100%. In experiment [6] (application rate 1280 g/ha), the “pre-emergence activity against ALOMY in %” value came out at 100%. In addition, the “post-emergence activity against AMARE in %” value in experiment [7] came to 80%. For the same compound, the “pre-emergence activity against ABUTH in %” value in experiment [8] (application rate 1280 g/ha) is on record as 90%. In addition, in experiment [9] (application rate 320 g/ha), the “pre-emergence activity against MATIN in %” value is 90%.

As for `CC1(C(=O)N2CSc3cc(Br)c(-c4ccccc4)nc32)CC(Cl)=NO1` (stereo not drawn) [Example I-139], in the experiment with Setaria viridis (SETVI) [1] (application rate 320 g/ha), the “pre-emergence activity against SETVI in %” value turned out to be 100%. Also, in the experiment on Setaria viridis (SETVI) [2] (application rate 1280 g/ha), the “post-emergence activity against SETVI in %” value is 90%. Also, the “post-emergence activity against POLCO in %” value in experiment [3] (application rate 320 g/ha) came to 90%. For the same compound, the “pre-emergence activity against DIGSA in %” value in experiment [4] (application rate 320 g/ha) and in experiment [10] was 100% throughout. Further, in experiment [5] (application rate 320 g/ha), the “pre-emergence activity against ECHCG in %” value turned out to be 100%. Further, the “post-emergence activity against STEME in %” value in the experiment on Stellaria media (STEME) (application rate 1280 g/ha) amounted to 90%. Also, the “pre-emergence activity against POAAN in %” value with Poa annua (POAAN) (application rate 320 g/ha) is given as 100%. Moreover, the “pre-emergence activity against ALOMY in %” value in experiment [6] (application rate 1280 g/ha) stood at 90%. Also, in experiment [7], the “post-emergence activity against AMARE in %” value was 90%. For the same compound, the “pre-emergence activity against ABUTH in %” value in experiment [8] (application rate 320 g/ha) came out at 90%. For the same compound, the “pre-emergence activity against MATIN in %” value in [9] (application rate 1280 g/ha) worked out at 90%.

On to `Cc1ccccc1-c1nc2c(cc1C)SCN2C(=O)C1(C)CC(Cl)=NO1` (stereo not drawn) [Example I-137], for which, in the experiment with Setaria viridis (SETVI) [1] (application rate 320 g/ha), the “pre-emergence activity against SETVI in %” value was found to be 100%. In the experiment with Setaria viridis (SETVI) [2] (application rate 1280 g/ha), the “post-emergence activity against SETVI in %” value is recorded as 90%. The “post-emergence activity against POLCO in %” value in experiment [3] (application rate 320 g/ha) was 80%. Besides, the “pre-emergence activity against DIGSA in %” value in experiment [4] (application rate 320 g/ha) and in [10] was 100% each time. Also, the “pre-emergence activity against ECHCG in %” value in experiment [5] (application rate 80 g/ha) came to 100%. Moreover, the “post-emergence activity against STEME in %” value in the experiment with Stellaria media (STEME) (application rate 1280 g/ha) worked out at 90%. Also, the “pre-emergence activity against POAAN in %” value with Poa annua (POAAN) (application rate 320 g/ha) stood at 100%. Moreover, the “pre-emergence activity against ALOMY in %” value in [6] (application rate 320 g/ha) was determined as 90%. The “post-emergence activity against AMARE in %” value in experiment [7] was determined as 80%. Also, the “pre-emergence activity against ABUTH in %” value in experiment [8] (application rate 1280 g/ha) amounted to 100%. The “pre-emergence activity against MATIN in %” value in experiment [9] (application rate 320 g/ha) was determined as 90%.

`CCS(=O)(=O)N1CSc2cc(C)c(-c3ccccc3F)nc21` [Example I-060, 3-(ethylsulfonyl)-5-(2-fluorophenyl)-6-methyl-2,3-dihydro[1,3]thiazolo[4,5-b]pyridine]: the pest or weed control at 1280 g/ha in the experiment with Setaria viridis (SETVI) [1] (Setaria viridis, 504 h, application rate 1280 g/ha, read-out: pre-emergence activity against SETVI in %) turned out to be 100%; in experiment [6] (application rate 1280 g/ha) it was 90%. In addition, the pest or weed control at 320 g/ha worked out at 90% with Setaria viridis (SETVI) [2] (Setaria viridis, post-emergence, 504 h, application rate 320 g/ha, read-out: post-emergence activity against SETVI in %); 90% in the experiment with Stellaria media (STEME) (application rate 320 g/ha); 100% in the experiment on Poa annua (POAAN) (Poa annua, pre-emergence, 504 h, application rate 320 g/ha, read-out: pre-emergence activity against POAAN in %); 90% in experiment [7]; 90% in experiment [8] (Abutilon theophrasti, pre-emergence, 504 h, application rate 320 g/ha, read-out: pre-emergence activity against ABUTH in %); 90% in experiment [9] (application rate 320 g/ha). In addition, the pest or weed control at 320 g/ha in experiment [10] was determined as 100%. Further, the pest or weed control at 80 g/ha in experiment [3] (Fallopia convolvulus, 504 h, application rate 80 g/ha, read-out: post-emergence activity against POLCO in %) turned out to be 90%; in experiment [4] (application rate 80 g/ha), 100%; in experiment [5] (application rate 80 g/ha), 100%.
